Series [1] concerns the target T1, human chemokine receptor CCR-3 (Homo sapiens, UniProt P51677).
T1 construct: expressed in transfected cells; host or cells: K562 cells (clone hCCR-3-C1), membranes
T1 sequence (P51677 1-355): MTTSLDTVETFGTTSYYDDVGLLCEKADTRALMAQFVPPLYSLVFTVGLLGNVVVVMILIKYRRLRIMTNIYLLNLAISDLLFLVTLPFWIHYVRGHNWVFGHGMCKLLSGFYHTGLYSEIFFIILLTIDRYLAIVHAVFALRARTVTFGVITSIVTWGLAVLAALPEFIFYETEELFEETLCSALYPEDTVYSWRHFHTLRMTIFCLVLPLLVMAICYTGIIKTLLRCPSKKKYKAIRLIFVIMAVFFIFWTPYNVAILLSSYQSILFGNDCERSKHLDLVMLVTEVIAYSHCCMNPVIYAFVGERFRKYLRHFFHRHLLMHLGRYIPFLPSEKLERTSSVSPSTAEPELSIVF
Description: CCR-3 receptor binding assay, 125Jodine-eotaxin-1 Scintillation Proximity Assay (SPA). How it is done: The CCR-3 receptor binding test is based on a K562 cell line (leukemia myelogenic blast cells) transfected with the human chemokine receptor CCR-3 (hCCR-3-C1). The cell membranes were prepared by disrupting the hCCR-3 transfected K562 cells by […] and centrifugation at 40000 g, 4° C. for 1 h. The membranes were re-suspended in the SPA incubation buffer without bovine serum albumin for storage in aliquots at −80° C.
The CCR-3 receptor binding assay with the radioligand ^125Jodine-eotaxin-1 was performed in a Scintillation Proximity Assay (SPA) design. Cell membranes of hCCR-3 C1 cells were diluted in suitable concentrations (0.5-5 ug protein/well) in 96 well microtiter plates (1450-401, Wallac).
The test incubation mixture comprising 60 μl of the membrane suspension, 80 μl of the Wheat Germ Agglutinin coated PVT beads (organic scintillator, Amersham Pharmacia biotech) in a concentration of 0.4 mg and 40 μl of radiolabelled ^125J rhEotaxin (Amersham, IM290) were incubated with 20 μl of the test compound (dissolved in DMSO dilutions) for 2 hours. The SPA incubation buffer contained 25 mM HEPES, 25 mM MgCl2 6×H2O, 1 mM CaCl2 2×H2O and 0.1% bovine serum albumin. Included were controls for specific binding (no displacer added) and non-specific binding by adding unlabelled rhEotaxin (R&D Systems) or a test compound. Bound radioactivity was determined by scintillation counter (Micro Beta “Trilux”, Wallac). Determination of affinity of test compounds (dissociation constant Ki) was calculated by iterative fitting of experimental data using the law of mass action based program “easy sys” (Schittkowski, Num Math 68, 129-142 (1994)).
(In general: SPA uses beads or plates that emit light when radiolabelled molecules are held near them.)

The melting point is the temperature, or range, at which the solid turns liquid. Usually Ki stands for a dissociation constant, usually derived from enzyme kinetics or from competition with a known ligand. A high value points to a looser hold on the target.

Structures can show the parent of a compound that is named as a salt.

`CCc1nc2cc(F)ccc2n1C1CC2CCC(C1)N2CCCSc1ccc(F)cc1` (centres unmarked) (as salt: HCl) [Example 10, 2-Ethyl-5-fluoro-1-{8-[3-(4-fluoro-phenylsulfanyl)-propyl]-8-aza-bicyclo[3.2.1]oct-3-yl}-1H-benzoimidazole]: the melting point is 127 to 128 °C.
On the same count and under the same terms, the same measure for `Cc1nc2cc(F)ccc2n1C1CC2CCC(C1)N2CCCSc1ccc(F)cc1` (centres unmarked) (as salt: HCl) [Example 11, 5-Fluoro-1-{8-[3-(4-fluoro-phenylsulfanyl)-propyl]-8-aza-bicyclo[3.2.1]oct-3-yl}-2-methyl-1H-benzoimidazole]: 240 to 241 °C.
`Fc1ccc(SCCCN2C3CCC2CC(n2c(C4CC4)nc4cc(F)ccc42)C3)cc1` (centres unmarked) [Example 9, 2-Cyclopropyl-5-fluoro-1-{8-[3-(4-fluoro-phenylsulfanyl)-propyl]-8-aza-bicyclo[3.2.1]oct-3-yl}1H-benzoimidazole] showed a Ki in series [1] of 0.01 µM.
As for `CCc1nc2cc(F)ccc2n1C1CC2CCC(C1)N2CCCSc1ccc(F)cc1` (centres unmarked) [Example 10, 2-Ethyl-5-fluoro-1-{8-[3-(4-fluoro-phenylsulfanyl)-propyl]-8-aza-bicyclo[3.2.1]oct-3-yl}-1H-benzoimidazole], in series [1], the inhibition constant Ki is 0.0065 µM.
Consider `Cc1nc2cc(F)ccc2n1C1CC2CCC(C1)N2CCCSc1ccc(F)cc1` (centres unmarked) [Example 11, 5-Fluoro-1-{8-[3-(4-fluoro-phenylsulfanyl)-propyl]-8-aza-bicyclo[3.2.1]oct-3-yl}-2-methyl-1H-benzoimidazole], for which the inhibitory constant (Ki) in series [1] turned out to be 0.014 µM.

The values are drawn from patent publication US20050014782A1, “Novel n-(heterobicycloalkanes)-substituted indoles-or heteroderivatives thereof” (Boehringer Ingelheim International GmbH, priority 2003, published 2005).
